Measured values published in patent publication US9113629B2, “4-amino-6-(4-substituted-phenyl)-picolinates and 6-amino-2-(4-substituted-phenyl)-pyrimidine-4-carboxylates and their use as herbicides” (DOW AGROSCIENCES LLC, priority 2013, dated 2015).
Where two headings read alike, the source gives them in different places.

Tests used:
[1] = test system: Key Broadleaf Weed and Crop Species; test: Post-emergent Test II herbicidal activity (Table 5); type: in vivo; settings: for pest or weed control at 70 g/ha / pest or weed control at 140 g/ha: post-emergence, 336 h, 14 days after application
Description: (§1) Post-emergent Test II: Seeds or nutlets of the desired test plant species were planted in Sun Gro Metro-Mix® 360 planting mixture, which typically has a pH of 6.0 to 6.8 and an organic matter content of about 30 percent, in plastic pots with a surface area of 64 square centimeters. When required to ensure good germination and healthy plants, a fungicide treatment and/or other chemical or physical treatment was applied. The plants were grown for 7-21 d in a greenhouse with an approximate 15 h photoperiod which was maintained at about 23-29° C. during the day and 22-28° C. during the night. Nutrients and water were added on a regular basis and supplemental lighting was provided with overhead metal halide 1000-Watt lamps as necessary. The plants were employed for testing when they reached the first or second true leaf stage.
(§2) A weighed amount, determined by the highest rate to be tested, of each test compound was placed in a 25 mL glass vial and was dissolved in 4 mL of a 97:3 v/v mixture of acetone and DMSO to obtain concentrated stock solutions. […] The concentrated stock solutions obtained were diluted with 20 mL of an aqueous mixture containing acetone, water, isopropyl alcohol, DMSO. Atplus 411F crop oil concentrate, and Triton® X-155 surfactant in a 48.5:39:10:1.5:1.0:0.02 v/v ratio to obtain spray solutions containing the highest application rates. Additional application rates were obtained by serial dilution of 12 mL of the high rate solution into a solution containing 2 mL of 97:3 v/v mixture of acetone and DMSO and 10 mL of an aqueous mixture containing acetone, water, isopropyl alcohol, DMSO, Atplus 411F crop oil concentrate, and Triton X-155 surfactant in a 48.5:39:10:1.5:1.0:0.02 v/v ratio to obtain ½×, ¼×, ⅛× and 1/16× rates of the high rate. Compound requirements are based upon a 12 mL application volume at a rate of 187 liters per hectare (L/ha). Formulated compounds were applied to the plant material with an overhead Mandel track sprayer equipped with 8002E nozzles calibrated to deliver 187 L/ha over an application area of 0.503 square meters at a spray height of 18 inches (43 cm) above the average plant canopy height. Control plants were sprayed in the same manner with the solvent blank.
(§3) The treated plants and control plants were placed in a greenhouse as described above and watered by subirrigation to prevent wash-off of the test compounds. After 14 d, the condition of the test plants as compared with that of the untreated plants was determined visually and scored on a scale of 0 to 100 percent where 0 corresponds to no injury and 100 corresponds to complete kill.

[2] = test system: Key Grass and Sedge Weeds as well as Grass Crops; test: Post-emergent Test II herbicidal activity (Table 6); type: in vivo; settings: for Visual Growth Reduction (%) 14 Days After Application, SORVU: SORVU: sorghum (Sorghum vulgare); for pest or weed control at 70 g/ha / pest or weed control at 140 g/ha: post-emergence, 336 h
Description: as §1, §2, §3

COC(=O)c1nc(-c2ccc([N+](=O)[O-])cc2F)c(F)c(N)c1Cl [Compound 80]
Visual Growth Reduction (%) 14 Days After Application, ABUTH ([1]; ABUTH: velvetleaf (Abutilon theophrasti), application rate 70 g ai/ha): G (0-29)
Visual Growth Reduction (%) 14 Days After Application, ABUTH ([1]; ABUTH: velvetleaf (Abutilon theophrasti), application rate 140 g ai/ha): G (0-29)
Visual Growth Reduction (%) 14 Days After Application, AMARE ([1]; AMARE: redroot pigweed (Amaranthus retroflexus), application rate 70 g ai/ha): D (60-74)
Visual Growth Reduction (%) 14 Days After Application, AMARE ([1]; AMARE: redroot pigweed (Amaranthus retroflexus), application rate 140 g ai/ha): B (85-94)
Visual Growth Reduction (%) 14 Days After Application, BRSNN ([1]; BRSNN: oilseed-rape, canola (Brassica napus), application rate 70 g ai/ha): G (0-29)
Visual Growth Reduction (%) 14 Days After Application, BRSNN ([1]; BRSNN: oilseed-rape, canola (Brassica napus), application rate 140 g ai/ha): G (0-29)
Visual Growth Reduction (%) 14 Days After Application, CHEAL ([1]; CHEAL: lambsquarters (Chenopodium album), application rate 70 g ai/ha): A (95-100)
Visual Growth Reduction (%) 14 Days After Application, CHEAL ([1]; CHEAL: lambsquarters (Chenopodium album), application rate 140 g ai/ha): A (95-100)
Visual Growth Reduction (%) 14 Days After Application, EPHHL ([1]; EPHHL: wild poinsettia (Euphorbia heterophylla), application rate 70 g ai/ha): C (75-84)
Visual Growth Reduction (%) 14 Days After Application, EPHHL ([1]; EPHHL: wild poinsettia (Euphorbia heterophylla), application rate 140 g ai/ha): C (75-84)
Visual Growth Reduction (%) 14 Days After Application, HELAN ([1]; HELAN: sunflower (Helianthus annuus), application rate 70 g ai/ha): D (60-74)
Visual Growth Reduction (%) 14 Days After Application, HELAN ([1]; HELAN: sunflower (Helianthus annuus), application rate 140 g ai/ha): C (75-84)
Visual Growth Reduction (%) 14 Days After Application, VIOTR ([1]; VIOTR: wild pansy (Viola tricolor), application rate 70 g ai/ha): G (0-29)
Visual Growth Reduction (%) 14 Days After Application, VIOTR ([1]; VIOTR: wild pansy (Viola tricolor), application rate 140 g ai/ha): G (0-29)
Visual Growth Reduction (%) 14 Days After Application, CYPES ([2]; CYPES: yellow nutsedge (Cyperus esculentus), 70 g ai/ha): G (0-29)
Visual Growth Reduction (%) 14 Days After Application, CYPES ([2]; CYPES: yellow nutsedge (Cyperus esculentus), 140 g ai/ha): G (0-29)
Visual Growth Reduction (%) 14 Days After Application, DIGSA ([2]; DIGSA: crabgrass (Digitaria sanguinalis), 70 g ai/ha): G (0-29)
Visual Growth Reduction (%) 14 Days After Application, DIGSA ([2]; DIGSA: crabgrass (Digitaria sanguinalis), 140 g ai/ha): G (0-29)
Visual Growth Reduction (%) 14 Days After Application, ECHCG ([2]; ECHCG: barnyardgrass (Echinochloa crus-galli), 70 g ai/ha): G (0-29)
Visual Growth Reduction (%) 14 Days After Application, ECHCG ([2]; ECHCG: barnyardgrass (Echinochloa crus-galli), 140 g ai/ha): G (0-29)
Visual Growth Reduction (%) 14 Days After Application, ORYSA ([2]; ORYSA: rice (Oryza sativa), crop, 70 g ai/ha): G (0-29)
Visual Growth Reduction (%) 14 Days After Application, ORYSA ([2]; ORYSA: rice (Oryza sativa), crop, 140 g ai/ha): G (0-29)
Visual Growth Reduction (%) 14 Days After Application, SETFA ([2]; SETFA: giant foxtail (Setaria faberi), 70 g ai/ha): G (0-29)
Visual Growth Reduction (%) 14 Days After Application, SETFA ([2]; SETFA: giant foxtail (Setaria faberi), 140 g ai/ha): G (0-29)
Visual Growth Reduction (%) 14 Days After Application, SORVU ([2]; 70 g ai/ha): G (0-29)
Visual Growth Reduction (%) 14 Days After Application, SORVU ([2]; 140 g ai/ha): G (0-29)
Visual Growth Reduction (%) 14 Days After Application, TRZSS ([2]; TRZSS (wheat, Triticum aestivum), crop, 70 g ai/ha): G (0-29)
Visual Growth Reduction (%) 14 Days After Application, TRZSS ([2]; TRZSS (wheat, Triticum aestivum), crop, 140 g ai/ha): G (0-29)
Visual Growth Reduction (%) 14 Days After Application, ZEAMX ([2]; ZEAMX: maize, corn (Zea mays), crop, 70 g ai/ha): G (0-29)
Visual Growth Reduction (%) 14 Days After Application, ZEAMX ([2]; ZEAMX: maize, corn (Zea mays), crop, 140 g ai/ha): G (0-29)

COc1c(N)nc(-c2ccc(I)cc2)nc1C(=O)O [Compound 88]
pest or weed control at 70 g/ha ([1]; ABUTH: velvetleaf (Abutilon theophrasti), application rate 70 g ai/ha, read-out: Visual Growth Reduction (%) 14 Days After Application, ABUTH): 75 to 84%
pest or weed control at 140 g/ha ([1]; ABUTH: velvetleaf (Abutilon theophrasti), application rate 140 g ai/ha, read-out: Visual Growth Reduction (%) 14 Days After Application, ABUTH): 95 to 100%
pest or weed control at 70 g/ha ([1]; AMARE: redroot pigweed (Amaranthus retroflexus), application rate 70 g ai/ha, read-out: Visual Growth Reduction (%) 14 Days After Application, AMARE): 85 to 94%
pest or weed control at 140 g/ha ([1]; AMARE: redroot pigweed (Amaranthus retroflexus), application rate 140 g ai/ha, read-out: Visual Growth Reduction (%) 14 Days After Application, AMARE): 85 to 94%
pest or weed control at 70 g/ha ([1]; BRSNN: oilseed-rape, canola (Brassica napus), application rate 70 g ai/ha, read-out: Visual Growth Reduction (%) 14 Days After Application, BRSNN): 95 to 100%
pest or weed control at 140 g/ha ([1]; BRSNN: oilseed-rape, canola (Brassica napus), application rate 140 g ai/ha, read-out: Visual Growth Reduction (%) 14 Days After Application, BRSNN): 95 to 100%
pest or weed control at 140 g/ha ([1]; CHEAL: lambsquarters (Chenopodium album), application rate 140 g ai/ha, read-out: Visual Growth Reduction (%) 14 Days After Application, CHEAL): 95 to 100%
pest or weed control at 70 g/ha ([1]; EPHHL: wild poinsettia (Euphorbia heterophylla), application rate 70 g ai/ha, read-out: Visual Growth Reduction (%) 14 Days After Application, EPHHL): 95 to 100%
pest or weed control at 140 g/ha ([1]; EPHHL: wild poinsettia (Euphorbia heterophylla), application rate 140 g ai/ha, read-out: Visual Growth Reduction (%) 14 Days After Application, EPHHL): 95 to 100%
pest or weed control at 70 g/ha ([1]; HELAN: sunflower (Helianthus annuus), application rate 70 g ai/ha, read-out: Visual Growth Reduction (%) 14 Days After Application, HELAN): 85 to 94%
pest or weed control at 140 g/ha ([1]; HELAN: sunflower (Helianthus annuus), application rate 140 g ai/ha, read-out: Visual Growth Reduction (%) 14 Days After Application, HELAN): 85 to 94%
pest or weed control at 70 g/ha ([1]; VIOTR: wild pansy (Viola tricolor), application rate 70 g ai/ha, read-out: Visual Growth Reduction (%) 14 Days After Application, VIOTR): 45 to 59%
pest or weed control at 140 g/ha ([1]; VIOTR: wild pansy (Viola tricolor), application rate 140 g ai/ha, read-out: Visual Growth Reduction (%) 14 Days After Application, VIOTR): 60 to 74%
pest or weed control at 70 g/ha ([2]; CYPES: yellow nutsedge (Cyperus esculentus), 70 g ai/ha, read-out: Visual Growth Reduction (%) 14 Days After Application, CYPES): 85 to 94%
pest or weed control at 140 g/ha ([2]; CYPES: yellow nutsedge (Cyperus esculentus), 140 g ai/ha, read-out: Visual Growth Reduction (%) 14 Days After Application, CYPES): 95 to 100%
pest or weed control at 70 g/ha ([2]; DIGSA: crabgrass (Digitaria sanguinalis), 70 g ai/ha, read-out: Visual Growth Reduction (%) 14 Days After Application, DIGSA): 0 to 29%
pest or weed control at 140 g/ha ([2]; DIGSA: crabgrass (Digitaria sanguinalis), 140 g ai/ha, read-out: Visual Growth Reduction (%) 14 Days After Application, DIGSA): 0 to 29%
pest or weed control at 70 g/ha ([2]; ECHCG: barnyardgrass (Echinochloa crus-galli), 70 g ai/ha, read-out: Visual Growth Reduction (%) 14 Days After Application, ECHCG): 75 to 84%
pest or weed control at 140 g/ha ([2]; ECHCG: barnyardgrass (Echinochloa crus-galli), 140 g ai/ha, read-out: Visual Growth Reduction (%) 14 Days After Application, ECHCG): 75 to 84%
pest or weed control at 70 g/ha ([2]; ORYSA: rice (Oryza sativa), crop, 70 g ai/ha, read-out: Visual Growth Reduction (%) 14 Days After Application, ORYSA): 0 to 29%
pest or weed control at 140 g/ha ([2]; ORYSA: rice (Oryza sativa), crop, 140 g ai/ha, read-out: Visual Growth Reduction (%) 14 Days After Application, ORYSA): 0 to 29%
pest or weed control at 70 g/ha ([2]; SETFA: giant foxtail (Setaria faberi), 70 g ai/ha, read-out: Visual Growth Reduction (%) 14 Days After Application, SETFA): 60 to 74%
pest or weed control at 140 g/ha ([2]; SETFA: giant foxtail (Setaria faberi), 140 g ai/ha, read-out: Visual Growth Reduction (%) 14 Days After Application, SETFA): 85 to 94%
pest or weed control at 70 g/ha ([2]; SORVU: grain sorghum (Sorghum vulgare), 70 g ai/ha, read-out: Visual Growth Reduction (%) 14 Days After Application, SORVU): 75 to 84%
pest or weed control at 140 g/ha ([2]; SORVU: grain sorghum (Sorghum vulgare), 140 g ai/ha, read-out: Visual Growth Reduction (%) 14 Days After Application, SORVU): 85 to 94%
pest or weed control at 70 g/ha ([2]; TRZSS (wheat, Triticum aestivum), crop, 70 g ai/ha, read-out: Visual Growth Reduction (%) 14 Days After Application, TRZSS): 60 to 74%
pest or weed control at 140 g/ha ([2]; TRZSS (wheat, Triticum aestivum), crop, 140 g ai/ha, read-out: Visual Growth Reduction (%) 14 Days After Application, TRZSS): 60 to 74%
pest or weed control at 70 g/ha ([2]; ZEAMX: maize, corn (Zea mays), crop, 70 g ai/ha, read-out: Visual Growth Reduction (%) 14 Days After Application, ZEAMX): 45 to 59%
pest or weed control at 140 g/ha ([2]; ZEAMX: maize, corn (Zea mays), crop, 140 g ai/ha, read-out: Visual Growth Reduction (%) 14 Days After Application, ZEAMX): 45 to 59%
